Series [1] relates to GABAA (γ-aminobutyric acidA) receptors. As to the kind of experiment: GABAA receptor ligand activity. The class given is binding. Conditions: amorphous form, stated to be like crystalline compound (I).
Series [2] is described as follows: Solubility of solid forms of compound (I).
The subject of series [3] is GABAA (γ-aminobutyric acidA) receptors. Conditions: as described in PCT/EP2006/063243 and U.S. 60/692866; cited from earlier work.

On to `CC(=O)N(C)c1cc(-c2ccnc3c(C(=O)c4cccs4)cnn23)ccc1F` [amorphous form, N-{2-Fluoro-5-[3-(thiophene-2-carbonyl)-pyrazolo[1,5-a]pyrimidin-7-yl]-phenyl}-N-methyl-acetamide], for which the “ligand of GABAA” value in series [1] is “potent ligand”. Further, the “solubility of the amorphous form relative to crystalline product” value in series [2] (amorphous versus crystalline product) is recorded as “about twice as high”. With `CC(=O)N(C)c1cc(-c2ccnc3c(C(=O)c4cccs4)cnn23)ccc1F` [compound (I), N-{2-Fluoro-5-[3-(thiophene-2-carbonyl)-pyrazolo[1,5-a]pyrimidin-7-yl]-phenyl}-N-methyl-acetamide], the “ligand of GABAA receptors” value in series [3] is “potent ligand”.

On to `CC(=O)N(C)c1cc(-c2ccnc3c(C(=O)c4cccs4)cnn23)ccc1F` [crystalline form of compound (I), N-{2-Fluoro-5-[3-(thiophene-2-carbonyl)-pyrazolo[1,5-a]pyrimidin-7-yl]-phenyl}-N-methyl-acetamide], for which, in series [2] (crystalline form, qualitative statement), the solubility result was “very low soluble”.
